Measurements reported in patent US7417038B1, “Methods of treating cachexia” (Imperial Innovations Limited, priority 1998, dated 2008).
Structures can show the parent of a compound that is named as a salt.

Key:
[1] = biological target: T1, ETA receptor (Homo sapiens, UniProt P25101); details: cited from earlier work; for selectivity for the ETA receptor versus the ETB receptor: ETA vs ETB
T1 sequence (P25101 21-427): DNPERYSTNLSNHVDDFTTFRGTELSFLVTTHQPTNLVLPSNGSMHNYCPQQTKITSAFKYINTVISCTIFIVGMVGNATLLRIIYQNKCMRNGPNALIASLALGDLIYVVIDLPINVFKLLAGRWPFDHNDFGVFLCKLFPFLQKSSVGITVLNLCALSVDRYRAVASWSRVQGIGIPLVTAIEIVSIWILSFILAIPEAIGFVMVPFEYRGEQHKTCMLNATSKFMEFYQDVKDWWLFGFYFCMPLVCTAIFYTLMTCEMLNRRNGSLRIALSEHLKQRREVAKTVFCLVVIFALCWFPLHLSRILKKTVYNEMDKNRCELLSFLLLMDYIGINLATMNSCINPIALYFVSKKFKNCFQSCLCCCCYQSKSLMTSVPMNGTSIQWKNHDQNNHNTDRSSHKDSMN

[2] = Treatment of a hypertensive patient with Atenolol (with co-medication): body weight; assay type: in vivo, human; details: baseline 85.6 kg, Atenolol 50 mgs OD with Losartan, Bendrofluazide, Doxazosin, 11 months
Method: A hypertensive patient presented weighing 85.6 kg. They were treated with Losartan 50 mgs OD, Bendrofluazide 2-5 mgs OD, Doxazosin 1 mg OD and Atenolol, a β-blocker, 50 mgs OD. In 11 months their weight increased to 94.3 kg.

[3] = Carvedilol treatment of a cachectic CHF patient: body weight, body composition (bioelectrical impedance), clinical status; assay type: in vivo, human; details: one cachectic CHF patient
[4] = Carvedilol treatment of a cachectic CHF patient: symptom limited treadmill exercise testing; assay type: in vivo, human; details: one cachectic CHF patient, Carvedilol 3.125 mg to 12.5 mg twice daily, follow-up vs baseline
[5] = biological target: T2, human cloned ETA receptors (Homo sapiens, UniProt P25101); details: cited from earlier work
T2 sequence (P25101 21-427): T1 sequence (P25101 21-427)

[6] = Spironolactone treatment of a cachectic CHF patient: symptom limited treadmill exercise testing; assay type: in vivo, human; details: one cachectic CHF patient, spironolactone 25 mg once daily, follow-up vs baseline
Method: The patient had good compliance in taking spironolactone.
Treadmill exercise testing: The patient underwent symptom limited treadmill exercise testing. A standard Bruce protocol was used. The patient breathed through a one-way valve connected to a commercially available respiratory gas analyser (MedGraphics Inc., USA) and minute ventilation and oxygen consumption were recorded on line every 15 seconds. The patient was encouraged to exercise to exhaustion. Exercise time and oxygen consumption at peak exercise adjusted for total body weight (peak VO2 in ml/kg/min) was measured as an index of the exercise capacity. One day prior to the intended baseline exercise test an additional exercise test was performed to familarise the patient with the test procedure.

[7] = Spironolactone treatment of a cachectic CHF patient: body weight and clinical status; details: one cachectic CHF patient, spironolactone 25 mg once daily
[8] = Carvedilol, without development of oedema
[9] = without development of any oedema

## CCCCN(CCCC)C(=O)CN1C[C@H](c2cc(OC)c3c(c2)OCO3)[C@@H](C(=O)O)[C@@H]1CC(C)(C)CCC [A-216546]
[1]
  selectivity for the ETA receptor versus the ETB receptor: > 25,000 fold

## CC(C)NCC(O)COc1ccc(CC(N)=O)cc1 (centres unmarked) [Atenolol]
[2]
  body weight after treatment: 94.3 kg

## COc1ccccc1OCCNCC(O)COc1cccc2[nH]c3ccccc3c12 (centres unmarked) [Carvedilol]
[3]; Carvedilol 3.125 mg to 12.5 mg twice daily
  tolerability of the treatment: tolerated the treatment well
[3]; Carvedilol 3.125 mg to 12.5 mg twice daily, bioelectrical impedance
  increase in lean muscle tissue: 1.8 kg
[3]; [8]
  body weight increase: 2.1 kg
  body weight increase (percent): 3.1%
[4]
  VE/VCO2-slope decrease: 15.5%
  peak VO2 increase: 15%

## COc1ccccc1Oc1c(NS(=O)(=O)c2ccc(C)cn2)nc(-c2ccnc(-c3nnn[nH]3)c2)nc1OCCO [Ro 61-1790, 5-methyl-pyridine-2-sulfonic acid 6-(2-hydroxy-ethoxy)-5-(2-methoxy-phenoxy)-2-(2-1H-tetrazol-5-yl-+++pyridin-4-yl)-pyrimidin-4-ylamide]
[1]
  selectivity for the ETA receptor versus the ETB receptor: approximately 1000 fold
[1]; competitive ET antagonist
  affinity to ETA receptor: subnanomolar range

## Cc1ccc(-c2c(NS(=O)(=O)c3ccc(C(C)(C)CO)cc3)ncnc2OCCOc2ncc(Br)cn2)cc1 [T-0201, N-(6-(2-(5-bromopyrimidin-4-yl)-4-(2-hydroxy-1,1-dimethylethyl)-benzensulfonamidesodium salt sesquihydrate]
[5]
  effect on specific binding of [125I]-ET-1: competitively antagonized the specific binding

## CC(=O)S[C@@H]1CC2=CC(=O)CC[C@]2(C)[C@H]2CC[C@@]3(C)[C@@H](CC[C@@]34CCC(=O)O4)[C@H]12 [spironolactone]
[6]
  exercise time increase: 53%
  peak VO2 increase: 79%
[7]
  New York Heart Association functional class (NYHA class) change: class III symptoms to class II symptoms
  side effects of the treatment: no side effects
[7]; [9]
  body weight increase: 1.5 kg
  body weight increase (percent): 2%
